{"source": "patent US20250346643A1", "about": "“TROPOMYOSIN KINASE RECEPTOR (TRK) LIGANDS AS THERAPEUTICS TO SUPPORT LIVER REGENERATION” (Vanderbilt University, priority 2024, published 2025)", "key": {"mTORC1": {"test_system": "mTORC1", "assay": "Immunoblotting of HDOs for P-S6RP and P-P70S6K (mTORC1 activation)", "type": "cell-based, human", "details": "HDO, serum free and glutamine free William's E medium (FIG. 20A-C)", "experimental": "Human ductal organoids. The normal human liver tissue was obtained through the Cooperative Human Tissue Network (CHTN) at Vanderbilt University Medical Center. The liver was cut into very small pieces in liver digestion medium (Gibco, Waltham, MA; 17703-034). The cell suspension was filtered through a 100-μm cell strainer. The flow through was then centrifuged for 2 min at 100 g, 4° C., and the cell pellet resuspended in ice-cold DMEM (Gibco, Waltham, MA; 11885-084, supplemented by 5% FBS) and centrifuged for 2 min at 300 g. The cell pellet was gently resuspended in Matrigel® (Corning, Corning, NY; 356231) and a […] dome plated in a 24-well plate. The plate was incubated for 10-15 min at 37° C. After solidifying, complete HepatiCult™ Organoid Initiation Medium (OIM) (STEMCELL Technologies, Vancouver, Canada; 100-0384) was added. For passaging, the Matrigel dome was dissociated using TrypLE (Thermo Fisher Scientific, Waltham, MA; 12604013) and incubated at 37° C. for 5 mins. Organoids were washed by resuspending in advanced DMEM/F12 and consecutive resuspension of the organoid pellet. Organoids were resuspended at a 1:10 dilution in Matrigel® and cultured in complete HepatiCult™ Organoid Growth Medium (OGM) (STEMCELL Technologies, Vancouver, Canada; 100-0385) for organoid expansion. For hepatocytic differentiation of hepatic ductal organoids, culture medium was changed to complete HepatiCult™ Organoid Differentiation Medium (ODM) (STEMCELL Technologies, 100-0383) 4 days after passaging. Vehicle, NTF3, BDNF, HGF (20 ng/ml final concentration) or Taletrectinib (Fisher Scientific, Waltham, MA; 502030245, final concentration 10 nM) or torin2 (Fisher Scientific, Waltham, MA; s2817, final concentration 25 nM) were diluted in William's E (without L-glutamine) and added to organoids.\nImmunoblotting. HDOs and mpPHH were homogenized in RIPA buffer containing proteinase inhibitors (Roche, Basel, Switzerland; cOmplete™ Mini protease inhibitor, 2 tab/10 ml buffer) and 1×HALT phosphatase inhibitors (Thermo Fisher Scientific, Waltham, MA; catalog no. 78428). Lysates were sonicated and then centrifuged for 10 min at 18,800 g. Protein concentration of supernatants was determined by Direct Detect Spectrophotometer (MilliporeSigma, Burlington, MA). HDOs were treated with growth factors as described above. Lyophilized NTF3 was solubilized with sterile-filtered PBS supplemented with 0.1% BSA, aliquoted, and stored at −80° C. until use. […] HDOs and mpPHH were collected on ice in PBS and centrifuged for 10 s, and the cell pellet was homogenized in RIPA buffer containing inhibitors (Roche, Basel, Switzerland; cOmplete™ Mini protease inhibitor, 1×HALT phosphatase inhibitors, Thermo Fisher Scientific, Waltham, MA; catalog no. 78428). Cell lysates were sonicated and centrifuged for 10 min at 18,800 g. The protein concentration of supernatants was determined by a Direct Detect® spectrophotometer (MilliporeSigma, Burlington, MA). For immunoblot analysis, 10 to 50 μg of protein diluted in […] sample buffer (Invitrogen, Waltham, MA) were analyzed per SDS-polyacrylamide gel electrophoresis (NuPAGE™, Invitrogen, Waltham, MA) using Mops buffer or MES buffer (Invitrogen, Waltham, MA). […] Semi-quantitative band densitometry was performed using ImageJ software (version 1.53)."}, "AML12 cells": {"test_system": "AML12 cells", "assay": "Cell proliferation assay (CellTiter-Glo) in AML12 cells", "type": "cell-based, mouse", "details": "NTF3 20 ng/ml, AML12 (FIG. 9E-F)", "experimental": "Cell lines. Human HepG2 (ATCC HB-8065) were maintained in MEM media with 10% FBS and the mouse hepatocyte cell line AML12 (ATCC, Manassas, VA; CRL-2254) in DMEM/F12 media supplemented with dexamethasone (40 ng/ml) and Insulin-Transferrin-Selenium (Gibco, Waltham, MA; 41400045), containing 10% FBS and 1% penicillin and streptomycin. JS1 (RRID: CVCL_C7PL), LX2 (RRID: CVCL_5792, MilliporeSigma, Burlington, MA; SCC064) and TWNT4 (RRID: CVCL_W296) cells were cultured in DMEM supplemented with 10% FBS. 293T cells (ATCC, Manassas, VA; CRL-3216) were cultured in DMEM supplemented with 10% FBS.\nCell proliferation assays. Primary mouse hepatocytes, HepG2 or AML 12 cells were grown in opaque-walled 96-well plates. NTF3 (final concentration 20 ng/ml) (STEMCELL Technologies, Vancouver, Canada; cat. 78074) and/or Loxo-195 (final concentration 5 nM) (Selleckchem, Houston, TX; S8636) were added into complete growth media without L-glutamine. Primary mouse hepatocytes were also grown in serum-free William's E media without supplements. Cells were analyzed by CellTiter-Glo® (Promega G7570, Madison, WI) which detects the number of viable cells on day 0 to day 5 by on detection systems GloMax® (Promega) or Bioteck Synergy H1 (Agilent, Santa Clara, CA). Mouse recombinant HGF (Abcam, Cambridge, UK; ab281797) was added to cell culture media at a final concentration 5 ng/ml. […]"}}}
{"substance": "NTF3: neurotrophin-3, recombinant protein; HSC-derived hepatocyte mitogen, ligand of TRKA, TRKB, TRKC", "values": [{"measurement": "phosphorylation of P-p70S6 kinase and P-S6 ribosomal protein (S6RP)", "setting": "mTORC1", "value": "significantly increased phosphorylation"}, {"measurement": "cell proliferation", "setting": "AML12 cells", "value": "greatly stimulated cell proliferation"}]}
